Measured values taken from the NIST ThermoML archive (doi:10.1016/j.fluid.2015.07.030).

Assay: refractive index (other wavelength) (dimensionless); xn = mol fraction of the nth substance listed
Conditions: 95.99 kPa, Liquid, Standard Abbe refractometry

OCCOCCOCCO [triethylene glycol] + O
refractive index
Conditions | Wavelength=404.7 nm | Wavelength=435.8 nm | Wavelength=486.1 nm | Wavelength=546.1 nm | Wavelength=587.6 nm | Wavelength=589.3 nm | Wavelength=632.8 nm | Wavelength=644 nm | Wavelength=706.5 nm
308.15 K, x2 = 0 | – | – | – | – | – | – | – | 1.44909 | 1.44737
308.15 K, x2 = 0.1056 | – | – | – | – | – | – | – | 1.44778 | 1.44608
308.15 K, x2 = 0.2069 | – | – | – | – | – | – | – | 1.44621 | 1.4451
308.15 K, x2 = 0.3104 | – | – | – | – | – | – | – | 1.44392 | 1.44202
308.15 K, x2 = 0.4844 | – | – | – | – | – | – | – | 1.43913 | 1.43745
308.15 K, x2 = 0.5016 | – | – | – | – | – | – | – | 1.43819 | 1.43653
308.15 K, x2 = 0.5952 | – | – | – | – | – | – | – | 1.43167 | 1.42998
308.15 K, x2 = 0.6016 | – | – | – | – | – | – | – | 1.43191 | 1.43023
308.15 K, x2 = 0.6788 | – | – | – | – | – | – | – | 1.42543 | 1.42374
308.15 K, x2 = 0.7835 | – | – | – | – | – | – | – | 1.41701 | 1.41536
308.15 K, x2 = 0.8184 | – | – | – | – | – | – | – | 1.41118 | 1.40951
308.15 K, x2 = 0.8473 | – | – | – | – | – | – | – | 1.4049 | 1.40326
308.15 K, x2 = 0.8719 | – | – | – | – | – | – | – | 1.39819 | 1.39653
308.15 K, x2 = 0.8926 | – | – | – | – | – | – | – | 1.39069 | 1.38904
308.15 K, x2 = 0.9106 | – | – | – | – | – | – | – | 1.38534 | 1.38371
308.15 K, x2 = 0.9254 | – | – | – | – | – | – | – | 1.37569 | 1.37409
308.15 K, x2 = 0.9303 | – | – | – | – | – | – | – | 1.37659 | 1.37498
308.15 K, x2 = 0.9391 | – | – | – | – | – | – | 1.37329 | 1.37297 | 1.37137
308.15 K, x2 = 0.951 | – | – | – | – | – | – | 1.36686 | 1.36654 | 1.36496
308.15 K, x2 = 0.9599 | – | – | – | – | – | – | 1.36065 | 1.36033 | 1.35875
308.15 K, x2 = 0.9708 | – | – | – | – | – | – | 1.35307 | 1.35275 | 1.35119
308.15 K, x2 = 0.979 | – | – | – | – | – | – | 1.34835 | 1.34803 | 1.34647
308.15 K, x2 = 0.9867 | – | – | – | – | – | – | 1.34205 | 1.34175 | 1.34023
308.15 K, x2 = 0.9936 | – | – | – | – | – | – | 1.33605 | 1.33576 | 1.33425
313.15 K, x2 = 0 | 1.46216 | 1.45863 | 1.45448 | 1.45106 | 1.44927 | 1.4492 | 1.44766 | 1.44731 | 1.44561
313.15 K, x2 = 0.1056 | 1.46096 | 1.45744 | 1.4533 | 1.4499 | 1.44812 | 1.44806 | 1.44652 | 1.44616 | 1.44445
313.15 K, x2 = 0.2069 | 1.45931 | 1.45583 | 1.45169 | 1.44831 | 1.44653 | 1.44647 | 1.44494 | 1.44459 | 1.44288
313.15 K, x2 = 0.3104 | 1.45682 | 1.45335 | 1.44921 | 1.44581 | 1.44397 | 1.44244 | 1.44209 | 1.44136 | 1.4404
313.15 K, x2 = 0.4844 | 1.45391 | 1.45049 | 1.44639 | 1.44305 | 1.44124 | 1.44046 | 1.43954 | 1.43899 | 1.43766
313.15 K, x2 = 0.5016 | 1.45102 | 1.44762 | 1.44358 | 1.44028 | 1.43853 | 1.43847 | 1.43695 | 1.43661 | 1.43492
313.15 K, x2 = 0.5952 | 1.44431 | 1.44094 | 1.43703 | 1.43376 | 1.43204 | 1.43197 | 1.43049 | 1.43015 | 1.42848
313.15 K, x2 = 0.6016 | 1.44384 | 1.44387 | 1.43615 | 1.43304 | 1.43132 | 1.43126 | 1.43021 | 1.42952 | 1.42809
313.15 K, x2 = 0.6788 | 1.43802 | 1.43469 | 1.43086 | 1.42768 | 1.42601 | 1.42559 | 1.42446 | 1.42411 | 1.42243
313.15 K, x2 = 0.7835 | 1.42903 | 1.42572 | 1.42205 | 1.41893 | 1.41728 | 1.41722 | 1.41578 | 1.41543 | 1.41372
313.15 K, x2 = 0.8184 | 1.42287 | 1.41965 | 1.41597 | 1.41287 | 1.41125 | 1.41119 | 1.40976 | 1.40942 | 1.40776
313.15 K, x2 = 0.8473 | 1.4172 | 1.41405 | 1.41039 | 1.40736 | 1.40575 | 1.40569 | 1.40427 | 1.40394 | 1.40231
313.15 K, x2 = 0.8719 | 1.41026 | 1.40715 | 1.40359 | 1.40061 | 1.39902 | 1.39896 | 1.39756 | 1.39723 | 1.39559
313.15 K, x2 = 0.8926 | 1.40276 | 1.39972 | 1.39624 | 1.39332 | 1.39177 | 1.39171 | 1.39035 | 1.39002 | 1.3884
313.15 K, x2 = 0.9106 | 1.39726 | – | 1.39088 | 1.38799 | 1.38648 | 1.38642 | 1.38508 | 1.38475 | 1.38313
313.15 K, x2 = 0.9254 | 1.38778 | 1.38484 | 1.38148 | 1.37865 | 1.37712 | 1.37706 | 1.37569 | 1.37537 | 1.37376
313.15 K, x2 = 0.9303 | 1.38834 | 1.38538 | 1.38203 | 1.3792 | 1.37769 | 1.37763 | 1.37629 | 1.37596 | 1.37435
313.15 K, x2 = 0.9391 | 1.38513 | 1.38218 | 1.37884 | 1.37598 | 1.37445 | 1.3744 | 1.37305 | 1.37272 | 1.37112
313.15 K, x2 = 0.951 | 1.37841 | 1.37555 | 1.37228 | 1.36949 | 1.36803 | 1.36794 | 1.36662 | 1.3663 | 1.36471
313.15 K, x2 = 0.9599 | 1.37093 | 1.36813 | 1.36494 | 1.36219 | 1.36072 | 1.36066 | 1.35936 | 1.35904 | 1.35747
313.15 K, x2 = 0.9708 | 1.36388 | 1.36116 | 1.35801 | 1.35533 | 1.35388 | 1.35383 | 1.35253 | 1.35221 | 1.35066
313.15 K, x2 = 0.979 | 1.35918 | 1.3565 | 1.35339 | 1.35071 | 1.34929 | 1.34923 | 1.34796 | 1.34764 | 1.3461
313.15 K, x2 = 0.9867 | 1.35221 | 1.34957 | 1.34651 | 1.34386 | 1.34243 | 1.34238 | 1.34111 | 1.34081 | 1.33932
313.15 K, x2 = 0.9936 | 1.34633 | 1.34376 | 1.34073 | 1.33811 | 1.3367 | 1.33665 | 1.3354 | 1.3351 | 1.33361
